Experimental data: the CheMixHub viscosity set

Test: xn = mol fraction of the nth substance listed

NCCCN + CC(O)CO
viscosity [mPa·s], 101.3 kPa
Conditions	293.15 K	298.15 K	303.15 K	308.15 K	313.15 K	318.15 K
x2 = 0.0488	2.44	2.19	1.92	1.68	1.48	1.32
x2 = 0.0977	3.15	2.8	2.43	2.08	1.82	1.58
x2 = 0.1467	3.95	3.45	2.97	2.51	2.17	1.91
x2 = 0.1958	5.23	4.5	3.79	3.17	2.7	2.34
x2 = 0.2451	6.85	5.81	4.87	4	3.36	2.88
x2 = 0.2945	9.15	7.62	6.28	5.09	4.2	–
x2 = 0.3441	12.3	10	8.12	6.48	5.29	–
x2 = 0.3937	17	13.6	10.8	8.39	6.74	–
x2 = 0.4435	22.8	17.9	14	10.7	8.55	–
x2 = 0.4934	30	23.2	17.9	13.6	10.6	–
x2 = 0.5435	38.5	29.3	22.2	16.7	12.9	–
x2 = 0.5937	47.4	35.8	27	20.1	15.4	–
x2 = 0.644	55.5	41.8	31.4	23.2	17.6	–
x2 = 0.6945	62.5	46.9	35.1	25.9	19.7	–
x2 = 0.745	67.1	50.3	37.8	27.8	21.2	–
x2 = 0.7958	69	51.8	38.8	28.8	21.9	–
x2 = 0.8466	68.9	51.9	39	28.9	22	–
x2 = 0.8976	66.1	50	37.7	28.1	21.5	–
x2 = 0.9487	62.3	47.1	35.7	26.8	20.5	–

CO + O
Conditions	viscosity [mPa·s]
293.15 K, 100 kPa, x1 = 0.2	1.801
293.15 K, 100 kPa, x1 = 0.3	1.845
293.15 K, 100 kPa, x1 = 0.4	1.764
293.15 K, 101 kPa, x1 = 0.055	1.262
293.15 K, 101 kPa, x1 = 0.129	1.651
293.15 K, 101 kPa, x1 = 0.232	1.836
293.15 K, 101 kPa, x1 = 0.487	1.555
293.15 K, 101 kPa, x1 = 0.541	1.418
293.15 K, 101 kPa, x1 = 0.625	1.23
293.15 K, 101 kPa, x1 = 0.642	1.186
293.15 K, 101 kPa, x1 = 0.903	0.745
293.15 K, 101.3 kPa, x1 = 0.05886	1.276
293.15 K, 101.3 kPa, x1 = 0.05892	1.276
293.15 K, 101.3 kPa, x1 = 0.1014	1.465
293.15 K, 101.3 kPa, x1 = 0.1021	1.453
293.15 K, 101.3 kPa, x1 = 0.1493	1.628
293.15 K, 101.3 kPa, x1 = 0.1972	1.742
293.15 K, 101.3 kPa, x2 = 0.0969	0.743
293.15 K, 101.3 kPa, x2 = 0.2006	0.916
293.15 K, 101.3 kPa, x2 = 0.3002	1.105
293.15 K, 101.3 kPa, x2 = 0.4001	1.314
293.15 K, 101.3 kPa, x2 = 0.5	1.501
293.15 K, 101.3 kPa, x2 = 0.7	1.837
293.15 K, 101.3 kPa, x2 = 0.85	1.705
293.15 K, 101.3 kPa, x2 = 0.9	1.528
293.15 K, 101.3 kPa, x2 = 0.95	1.278
298.15 K, 101 kPa, x1 = 0.0519	1.129
298.15 K, 101 kPa, x1 = 0.0845	1.264
298.15 K, 101 kPa, x1 = 0.125	1.385
298.15 K, 101 kPa, x1 = 0.217	1.576
298.15 K, 101 kPa, x1 = 0.274	1.59
298.15 K, 101 kPa, x1 = 0.465	1.35
298.15 K, 101 kPa, x1 = 0.702	1.03
298.15 K, 101 kPa, x2 = 0.9413	1.1
298.15 K, 101.3 kPa, x1 = 0.1021	1.3
298.15 K, 101.3 kPa, x1 = 0.1233	1.392
298.15 K, 101.3 kPa, x1 = 0.2727	1.595
298.15 K, 101.3 kPa, x1 = 0.3599	1.534
298.15 K, 101.3 kPa, x1 = 0.4576	1.401
298.15 K, 101.3 kPa, x1 = 0.5675	1.218
298.15 K, 101.3 kPa, x1 = 0.6922	1.005
298.15 K, 101.3 kPa, x1 = 0.835	0.782
298.15 K, 101.3 kPa, x1 = 0.9144	0.659
298.15 K, 101.33 kPa, x1 = 0.03958	1.055
298.15 K, 101.33 kPa, x1 = 0.05923	1.157
298.15 K, 101.33 kPa, x1 = 0.1332	1.403
298.15 K, 101.33 kPa, x1 = 0.2396	1.6
298.15 K, 101.33 kPa, x1 = 0.2551	1.575
298.15 K, 101.33 kPa, x1 = 0.2785	1.57
298.15 K, 101.33 kPa, x1 = 0.3255	1.57
298.15 K, 101.33 kPa, x1 = 0.3558	1.532
298.15 K, 101.33 kPa, x1 = 0.3863	1.49
298.15 K, 101.33 kPa, x1 = 0.4426	1.427
298.15 K, 101.33 kPa, x1 = 0.4685	1.37
298.15 K, 101.33 kPa, x1 = 0.5278	1.282
298.15 K, 101.33 kPa, x1 = 0.6055	1.167
298.15 K, 101.33 kPa, x1 = 0.6583	1.105
303.15 K, 101 kPa, x1 = 0.055	0.978
303.15 K, 101 kPa, x1 = 0.129	1.245
303.15 K, 101 kPa, x1 = 0.176	1.313
303.15 K, 101 kPa, x1 = 0.256	1.37
303.15 K, 101 kPa, x1 = 0.487	1.218
303.15 K, 101 kPa, x1 = 0.541	1.126
303.15 K, 101 kPa, x1 = 0.642	0.974
303.15 K, 101 kPa, x1 = 0.903	0.63
303.15 K, 101.3 kPa, x1 = 0.0588	1.015
303.15 K, 101.3 kPa, x1 = 0.1233	1.206
303.15 K, 101.3 kPa, x1 = 0.2727	1.381
303.15 K, 101.3 kPa, x1 = 0.4576	1.239
303.15 K, 101.3 kPa, x1 = 0.5675	1.085
303.15 K, 101.3 kPa, x1 = 0.6922	0.907
303.15 K, 101.3 kPa, x1 = 0.835	0.714
303.15 K, 101.3 kPa, x1 = 0.9144	0.612
303.15 K, 101.3 kPa, x2 = 0.0969	0.634
303.15 K, 101.3 kPa, x2 = 0.1	0.618
303.15 K, 101.3 kPa, x2 = 0.2006	0.768
303.15 K, 101.3 kPa, x2 = 0.208	0.755
303.15 K, 101.3 kPa, x2 = 0.3002	0.906
303.15 K, 101.3 kPa, x2 = 0.3041	0.878
303.15 K, 101.3 kPa, x2 = 0.4001	1.062
303.15 K, 101.3 kPa, x2 = 0.5	1.177
303.15 K, 101.3 kPa, x2 = 0.5599	1.263
303.15 K, 101.3 kPa, x2 = 0.6148	1.306
303.15 K, 101.3 kPa, x2 = 0.7	1.39
303.15 K, 101.3 kPa, x2 = 0.7982	1.308
303.15 K, 101.3 kPa, x2 = 0.8	1.361
303.15 K, 101.3 kPa, x2 = 0.85	1.284
303.15 K, 101.3 kPa, x2 = 0.9043	1.108
303.15 K, 101.3 kPa, x2 = 0.95	0.999
303.15 K, 101.33 kPa, x2 = 0.1232	0.625
303.15 K, 101.33 kPa, x2 = 0.1599	0.679
303.15 K, 101.33 kPa, x2 = 0.2168	0.765
303.15 K, 101.33 kPa, x2 = 0.2992	0.874
303.15 K, 101.33 kPa, x2 = 0.3639	0.972
303.15 K, 101.33 kPa, x2 = 0.3948	1.021
303.15 K, 101.33 kPa, x2 = 0.4567	1.129
303.15 K, 101.33 kPa, x2 = 0.5837	1.31
303.15 K, 101.33 kPa, x2 = 0.8272	1.319
303.15 K, 101.33 kPa, x2 = 0.8782	1.213
303.15 K, 101.33 kPa, x2 = 0.886	1.185
303.15 K, 101.33 kPa, x2 = 0.9125	1.11
308.15 K, 101 kPa, x1 = 0.125	1.07
308.15 K, 101 kPa, x1 = 0.274	1.22
308.15 K, 101 kPa, x1 = 0.465	1.08
308.15 K, 101 kPa, x1 = 0.702	0.834
308.15 K, 101 kPa, x2 = 0.9413	0.9361
308.15 K, 101.3 kPa, x1 = 0.0588	0.894
308.15 K, 101.3 kPa, x1 = 0.1233	1.062
308.15 K, 101.3 kPa, x1 = 0.1943	1.172
308.15 K, 101.3 kPa, x1 = 0.2727	1.213
308.15 K, 101.3 kPa, x1 = 0.3599	1.18
313.15 K, 101 kPa, x1 = 0.055	0.78
313.15 K, 101 kPa, x1 = 0.129	0.974
313.15 K, 101 kPa, x1 = 0.176	1.021
313.15 K, 101 kPa, x1 = 0.232	1.078
313.15 K, 101 kPa, x1 = 0.256	1.067
313.15 K, 101 kPa, x1 = 0.487	0.973
313.15 K, 101 kPa, x1 = 0.541	0.911
313.15 K, 101 kPa, x1 = 0.625	0.815
313.15 K, 101 kPa, x1 = 0.642	0.807
313.15 K, 101 kPa, x1 = 0.903	0.545
313.15 K, 101.3 kPa, x2 = 0.0969	0.544
313.15 K, 101.3 kPa, x2 = 0.2006	0.643
313.15 K, 101.3 kPa, x2 = 0.3002	0.749
313.15 K, 101.3 kPa, x2 = 0.4001	0.861
313.15 K, 101.3 kPa, x2 = 0.5	0.945
313.15 K, 101.3 kPa, x2 = 0.6	1.022
313.15 K, 101.3 kPa, x2 = 0.7	1.091
313.15 K, 101.3 kPa, x2 = 0.8	1.054
313.15 K, 101.3 kPa, x2 = 0.85	0.995
313.15 K, 101.3 kPa, x2 = 0.9	0.907
313.15 K, 101.3 kPa, x2 = 0.95	0.788
318.15 K, 101 kPa, x1 = 0.125	0.832
318.15 K, 101 kPa, x1 = 0.274	0.952
318.15 K, 101 kPa, x1 = 0.465	0.868
318.15 K, 101 kPa, x1 = 0.702	0.69
318.15 K, 101 kPa, x2 = 0.9413	0.8181
323.15 K, 100 kPa, x1 = 0.2	0.832
323.15 K, 100 kPa, x1 = 0.3	0.86
323.15 K, 100 kPa, x1 = 0.4	0.848
323.15 K, 101 kPa, x1 = 0.055	0.64
323.15 K, 101 kPa, x1 = 0.129	0.785
323.15 K, 101 kPa, x1 = 0.176	0.818
323.15 K, 101 kPa, x1 = 0.232	0.857
323.15 K, 101 kPa, x1 = 0.256	0.849
323.15 K, 101 kPa, x1 = 0.487	0.796
323.15 K, 101 kPa, x1 = 0.541	0.746
323.15 K, 101 kPa, x1 = 0.625	0.678
323.15 K, 101 kPa, x1 = 0.642	0.673
323.15 K, 101 kPa, x1 = 0.903	0.475
323.15 K, 101.3 kPa, x1 = 0.9144	0.458
323.15 K, 101.3 kPa, x2 = 0.0969	0.47
323.15 K, 101.3 kPa, x2 = 0.2006	0.547
323.15 K, 101.3 kPa, x2 = 0.3002	0.628
323.15 K, 101.3 kPa, x2 = 0.4001	0.71
323.15 K, 101.3 kPa, x2 = 0.5	0.774
323.15 K, 101.3 kPa, x2 = 0.6	0.826
323.15 K, 101.3 kPa, x2 = 0.7	0.86
323.15 K, 101.3 kPa, x2 = 0.8	0.84
323.15 K, 101.3 kPa, x2 = 0.85	0.796
323.15 K, 101.3 kPa, x2 = 0.95	0.647
